# Source: paper PMC9151520 (Archives of Toxicology, 2022)
# Values joined by “and” are separate entries in the source; they are usually repeats but may differ in a detail not shown here. Equal entries are not always repeated. Structures can show the parent of a compound that is named as a salt. Where two headings read alike, the source gives them in different places.
# Legend:
# [1] = system: p53 signaling (p53RE-bla HCT-116 cells); test: cells; assay type: cell-based
# [2] = system: p53 signaling (p53RE-bla HCT-116 cells)
# [3] = system: p53 signaling (p53RE-bla HCT-116 cells); remark: listed apart in the source
# [4] = Homo sapiens, HCT-116, read-out: p53 activation EC50, cherry pick confirmation
# [5] = Homo sapiens, HCT-116, read-out: p53 activation EC50, primary screening
# [6] = Homo sapiens, HCT-116, read-out: p53 activation efficacy, cherry pick confirmation
# [7] = Homo sapiens, HCT-116, read-out: p53 activation efficacy, primary screening
# [8] = Homo sapiens, HCT-116, read-out: EC50, p53 activation, primary screening
# [9] = Homo sapiens, HCT-116, read-out: Efficacy, p53 activation, primary screening
SMILES,"Viability EC50, cherry pick confirmation (p53RE-bla HCT-116 cells)","Viability EC50, primary screening (p53RE-bla HCT-116 cells)","Viability efficacy, cherry pick confirmation (p53RE-bla HCT-116 cells)","Viability efficacy, primary screening (p53RE-bla HCT-116 cells)","EC50 [1, 4] [µM]","EC50 [1, 5] [µM]","Emax [1, 6] [%]","Emax [1, 7] [%]","p53 activation EC50, cherry pick confirmation [2]","p53 activation EC50, primary screening [2]","p53 activation efficacy, cherry pick confirmation [2]","p53 activation efficacy, primary screening [2]","p53 activation EC50, cherry pick confirmation [3]","p53 activation EC50, primary screening [3]","p53 activation efficacy, cherry pick confirmation [3]","p53 activation efficacy, primary screening [3]",further results
S=c1[nH]cnc2nc[nH]c12 [6-Mercaptopurine],inactive,inactive,inactive,inactive,9.76,7.97,41.7,80.4,inactive,inactive,inactive,inactive,inactive,inactive,inactive,inactive,
Cc1cc(=O)oc2cc(N(C)C)ccc12 [7-(Dimethylamino)-4-methylcoumarin],inactive,inactive,inactive,inactive,,,,,inactive,,inactive,,inactive,,inactive,,"p53 activation efficacy, cherry pick confirmation [1]: 79.8427; p53 activation efficacy, primary screening [1]: 78.774; EC50 ([1]; read-out: p53 activation EC50, cherry pick confirmation): 29.5 µM; EC50 ([1]; read-out: p53 activation EC50, primary screening): 35.2 µM"
CCN(CC)c1ccc2c(C)cc(=O)oc2c1 [7-Diethylamino-4-methylcoumarin],,,,,,,,,,,,,,,,,"Viability EC50, HLM (p53RE-bla HCT-116 cells): inactive; Viability EC50, No MS (p53RE-bla HCT-116 cells): inactive; Viability EC50, RLM (p53RE-bla HCT-116 cells): inactive; Viability Efficacy, HLM (p53RE-bla HCT-116 cells): inactive; Viability Efficacy, No MS (p53RE-bla HCT-116 cells): inactive; Viability Efficacy, RLM (p53RE-bla HCT-116 cells): inactive; EC50 ([1]; read-out: p53 activation EC50, No MS): 13 µM and 25.2 µM; p53 activation EC50, RLM [2]: inactive; p53 activation Efficacy, RLM [2]: inactive; p53 activation EC50, HLM [3]: inactive; EC50 ([3]; read-out: p53 activation EC50, HLM): 41.1 µM"
C[C@]12CC[C@@H]3c4ccc(O)cc4CC[C@H]3[C@@H]1CC[C@H]2O [17alpha-Estradiol],inactive,inactive,inactive,inactive,,12.3,,54.4,inactive,inactive,inactive,inactive,inactive,inactive,inactive,inactive,"p53 activation EC50, cherry pick confirmation [1]: inactive; p53 activation efficacy, cherry pick confirmation [1]: inactive"
C#C[C@]1(O)CC[C@H]2[C@@H]3CCc4cc(O)ccc4[C@H]3CC[C@@]21C [17alpha-Ethinylestradiol],inactive,inactive,inactive,inactive,3.62,11.9,50.6,38.5,inactive,inactive,inactive,inactive,inactive,inactive,inactive,inactive,
CC(=O)O[C@@H]1C(=O)O[C@H]2[C@@H]1OC(=O)[C@@H]2OC(C)=O [Aceglatone],,,,,,,,,,,,,,,,,"EC50, viability, cherry pick confirmation (p53RE-bla HCT-116 cells): inactive; EC50, viability, primary screening (p53RE-bla HCT-116 cells): inactive; Efficacy, viability, cherry pick confirmation (p53RE-bla HCT-116 cells): inactive; Efficacy, viability, primary screening (p53RE-bla HCT-116 cells): inactive; EC50, p53 activation, cherry pick confirmation [1]: inactive; Efficacy, p53 activation, cherry pick confirmation [1]: inactive; EC50 [1, 8]: 21.5 µM; Emax [1, 9]: 37.3%; EC50, p53 activation, cherry pick confirmation [2]: inactive; EC50, p53 activation, primary screening [2]: inactive; Efficacy, p53 activation, cherry pick confirmation [2]: inactive; Efficacy, p53 activation, primary screening [2]: inactive; EC50, p53 activation, cherry pick confirmation [3]: inactive; EC50, p53 activation, primary screening [3]: inactive; Efficacy, p53 activation, cherry pick confirmation [3]: inactive; Efficacy, p53 activation, primary screening [3]: inactive"
CC(C)(C)C(=O)OCOP(=O)(COCCn1cnc2c(N)ncnc21)OCOC(=O)C(C)(C)C [Adefovir dipivoxil],inactive,inactive,inactive,inactive,1.47,5.18,60.8,106,inactive,inactive,inactive,inactive,inactive,inactive,inactive,inactive,
COc1cccc2c1C(=O)c1c(O)c3c(c(O)c1C2=O)C[C@@](O)(C(=O)CO)C[C@@H]3O[C@H]1C[C@H](N)[C@H](O)[C@H](C)O1 [Adriamycin hydrochloride],,,,,,,,,,,,,,,,,"EC50, viability, cherry pick confirmation (p53RE-bla HCT-116 cells): inactive; EC50, viability, primary screening (p53RE-bla HCT-116 cells): inactive; Efficacy, viability, cherry pick confirmation (p53RE-bla HCT-116 cells): inactive; Efficacy, viability, primary screening (p53RE-bla HCT-116 cells): inactive; EC50 ([1]; Homo sapiens, HCT-116, read-out: EC50, p53 activation, cherry pick confirmation): 1.45 µM; EC50 [1, 8]: 0.963 µM; Emax ([1]; Homo sapiens, HCT-116, read-out: Efficacy, p53 activation, cherry pick confirmation): 335%; Emax [1, 9]: 220%; EC50, p53 activation, cherry pick confirmation [2]: inactive; EC50, p53 activation, primary screening [2]: inactive; Efficacy, p53 activation, cherry pick confirmation [2]: inactive; Efficacy, p53 activation, primary screening [2]: inactive; EC50, p53 activation, cherry pick confirmation [3]: inactive; EC50, p53 activation, primary screening [3]: inactive; Efficacy, p53 activation, cherry pick confirmation [3]: inactive; Efficacy, p53 activation, primary screening [3]: inactive"
CCC[S+]([O-])c1ccc2[nH]c(NC(=O)OC)nc2c1 (stereo not shown) [Albendazole oxide],inactive,inactive,inactive,inactive,20.5,12.8,37.2,33.8,inactive,inactive,inactive,inactive,inactive,inactive,inactive,inactive,
CCCSc1ccc2nc(NC(=O)OC)[nH]c2c1 [Albendazole],inactive,inactive,inactive,inactive,0.113,0.517,31.1,40.1,inactive,inactive,inactive,inactive,inactive,inactive,inactive,inactive,
